Data on 19 compounds can be found in patent US20250333424A1, “ANTIVIRAL COMPOUNDS” (Gilead Sciences, Inc., priority 2024, published 2025).

pEC50: −log10 of the molar value.

The test system of this assay is monocytic THP1 cells infected with HIV VSV-G pseudotyped GFP-NEF reporter virus. As to the kind of experiment: cells. Type of assay: cell-based. The following applies: Human immunodeficiency virus 1, THP-1, 24 h.
One may read the pEC50 as the negative decadic logarithm of the EC50, by convention in mol/L. Read a low pEC50 as a high EC50. `Cc1cc(/C=C/C#N)cc(C)c1Oc1nc(NC23CC(C#N)(C2)C3)nc2c1C1(C)OCC3(COC3)CN1C2=O` (stereo not shown) [Example 199, (E)-3-((4′-(4-(2-cyanovinyl)-2,6-dimethylphenoxy)-4b′-methyl-10′-oxo-4b′,10′-dihydro-6′H,8′H-spiro[oxetane-3,7′-pyrimido[5′,4′:3,4]pyrrolo[2,1-b][1,3]oxazin]-2′-yl)amino)bicyclo[1.1.1]pentane-1-carbonitrile]: the pEC50 is 7.31.
The same measure for `Cc1cc(/C=C/C#N)cc(C)c1Nc1nc(NC23CC(C#N)(C2)C3)nc2[nH]nc(C)c12` [Example 236, 3-[[4-[4-[(E)-2-cyanovinyl]-2,6-dimethyl-anilino]-3-methyl-11H-pyrazolo[3,4-d]pyrimidin-6-yl]amino]bicyclo[1.1.1]pentane-1-carbonitrile]: 6.66.
`Cc1cc(/C=C/C#N)cc(C)c1Oc1nc(NC23CC(C#N)(C2)C3)nc2nc(C(F)F)n(C)c12` [Compound 25, (E)-3-((6-(4-(2-cyanovinyl)-2,6-dimethylphenoxy)-8-(difluoromethyl)-7-methyl-7H-purin-2-yl)amino)bicyclo[1.1.1]pentane-1-carbonitrile] showed a pEC50 of 7.43.
With `Cc1cc(/C=C/C#N)cc(C)c1Oc1nc(NC23CC(C#N)(C2)C3)nc2c1[C@@]1(C)O[C@@H](C)CN1C2=O` (single isomer, unassigned) [Example 249], the negative-log EC50 (pEC50) was 7.12.
The compound `Cc1cc(/C=C/C#N)cc(C)c1Oc1nc(NC23CC(C#N)(C2)C3)nc2c1C(C)N(c1cnn(C3CC3)c1)C2=O` (stereo not shown) [Example 224, (E)-3-((4-(4-(2-cyanovinyl)-2,6-dimethylphenoxy)-6-(1-cyclopropyl-1H-pyrazol-4-yl)-5-methyl-7-oxo-6,7-dihydro-5H-pyrrolo[3,4-d]pyrimidin-2-yl)amino)bicyclo[1.1.1]pentane-1-carbonitrile] had a pEC50 of 7.29. This pEC50 and that of the compound before are within 0.2 log units of each other.
In the case of `Cc1cc(/C=C/C#N)cc(C)c1Oc1nc(NC23CC(C#N)(C2)C3)nc2c1CNC2=O` [Compound 153, (E)-3-((4-(4-(2-cyanovinyl)-2,6-dimethylphenoxy)-7-oxo-6,7-dihydro-5H-pyrrolo[3,4-d]pyrimidin-2-yl)amino)bicyclo[1.1.1]pentane-1-carbonitrile] it was 7.56; in that of `Cc1cc(/C=C/C#N)cc(C)c1Oc1nc(NC23CC(C#N)(C2)C3)nc2c1ncn2CC1(C#N)CC1` [Compound 45, (E)-3-((9-((1-cyanocyclopropyl)methyl)-6-(4-(2-cyanovinyl)-2,6-dimethylphenoxy)-9H-purin-2-yl)amino)bicyclo[1.1.1]pentane-1-carbonitrile], 7.28; in that of `Cc1cc(/C=C/C#N)cc(C)c1Nc1nc(NC23CC(C#N)(C2)C3)nc2nn(C)cc12` [Example 237, 3-[[4-[4-[(E)-2-cyanovinyl]-2,6-dimethyl-anilino]-2-methyl-pyrazolo[3,4-d]pyrimidin-6-yl]amino]bicyclo[1.1.1]pentane-1-carbonitrile], 6.92.
Take `Cc1cc(/C=C/C#N)cc(C)c1Oc1nc(NC23CC(C#N)(C2)C3)nc2nn(CC3CC3)cc12` [Compound 145, (E)-3-((4-(4-(2-cyanovinyl)-2,6-dimethylphenoxy)-2-(cyclopropylmethyl)-2H-pyrazolo[3,4-d]pyrimidin-6-yl)amino)bicyclo[1.1.1]pentane-1-carbonitrile]: the pEC50 is 7.05.
In the case of `COc1ccc(CN2C(=O)C(C)(C)c3c(Oc4c(C)cc(/C=C/C#N)cc4C)nc(NC45CC(C#N)(C4)C5)nc32)cc1` [Compound 146, (E)-3-((4-(4-(2-cyanovinyl)-2,6-dimethylphenoxy)-7-(4-methoxybenzyl)-5,5-dimethyl-6-oxo-6,7-dihydro-5H-pyrrolo[2,3-d]pyrimidin-2-yl)amino)bicyclo[1.1.1]pentane-1-carbonitrile] it was 7.45; in that of `Cc1cc(/C=C/C#N)cc(C)c1Oc1nc(NC23CC(C#N)(C2)C3)nc2nc3n(c12)C[C@@H](C)CO3` [Compound 186, (R,E)-3-((4-(4-(2-cyanovinyl)-2,6-dimethylphenoxy)-7-methyl-7,8-dihydro-6H-[1,3]oxazino[2,3-f]purin-2-yl)amino)bicyclo[1.1.1]pentane-1-carbonitrile], 7.04.
On to `Cc1cc(/C=C/C#N)cc(C)c1Oc1nc(NC23CC(C#N)(C2)C3)nc2c1/C(=C/F)N(C1CC1)C2=O` [Compound 268, 3-(((Z)-4-(4-((E)-2-cyanovinyl)-2,6-dimethylphenoxy)-6-cyclopropyl-5-(fluoromethylene)-7-oxo-6,7-dihydro-5H-pyrrolo[3,4-d]pyrimidin-2-yl)amino)bicyclo[1.1.1]pentane-1-carbonitrile], for which the pEC50 was 6.76.
In the case of `Cc1cc(/C=C/C#N)cc(C)c1Oc1nc(NC23CC(C#N)(C2)C3)nc2nn(-c3cnn(C)c3)cc12` [Example 232, (E)-3-((4-(4-(2-cyanovinyl)-2,6-dimethylphenoxy)-2-(1-methyl-1H-pyrazol-4-yl)-2H-pyrazolo[3,4-d]pyrimidin-6-yl)amino)bicyclo[1.1.1]pentane-1-carbonitrile] it was 6.96; in that of `Cc1cc(/C=C/C#N)cc(C)c1Oc1nc(NC23CC(C#N)(C2)C3)nc2nc(C(F)F)n(C(F)F)c12` [Compound 178, (E)-3-((6-(4-(2-cyanovinyl)-2,6-dimethylphenoxy)-7,8-bis(difluoromethyl)-7H-purin-2-yl)amino)bicyclo[1.1.1]pentane-1-carbonitrile], 7.59; in that of `Cc1cc(/C=C/C#N)cc(C)c1Oc1nc(NC23CC(C#N)(C2)C3)nc2c1c(C)nn2CC#N` [Compound 100, (E)-3-((1-(cyanomethyl)-4-(4-(2-cyanovinyl)-2,6-dimethylphenoxy)-3-methyl-11H-pyrazolo[3,4-d]pyrimidin-6-yl)amino)bicyclo[1.1.1]pentane-1-carbonitrile], 7.44.
In turn, `Cc1cc(/C=C/C#N)cc(C)c1Oc1nc(NC23CC(C#N)(C2)C3)nc2nc(C3CCCC3)[nH]c12` [Compound 53, (E)-3-((6-(4-(2-cyanovinyl)-2,6-dimethylphenoxy)-8-cyclopentyl-7H-purin-2-yl)amino)bicyclo[1.1.1]pentane-1-carbonitrile] gave a pEC50 of 6.63. This pEC50 is 0.81 log units lower than that of the compound before.
The same measure for `Cc1cc(/C=C/C#N)cc(C)c1Oc1nc(NC23CC(C#N)(C2)C3)nc2c1C(C)NC2=O` (stereo not shown) [Compound 136, (E)-3-((4-(4-(2-cyanovinyl)-2,6-dimethylphenoxy)-5-methyl-7-oxo-6,7-dihydro-5H-pyrrolo[3,4-d]pyrimidin-2-yl)amino)bicyclo[1.1.1]pentane-1-carbonitrile]: 7.82; for `Cc1cc(/C=C/C#N)cc(C)c1Oc1nc(NC23CC(C#N)(C2)C3)nc2ncn(C(F)F)c12` [Compound 12, (E)-3-((6-(4-(2-cyanovinyl)-2,6-dimethylphenoxy)-7-(difluoromethyl)-7H-purin-2-yl)amino)bicyclo[1.1.1]pentane-1-carbonitrile]: 8.25; for `Cc1cc(/C=C/C#N)cc(C)c1Oc1nc(NC23CC(C#N)(C2)C3)nc2nc(C)n(C(F)F)c12` [Compound 13, (E)-3-((6-(4-(2-cyanovinyl)-2,6-dimethylphenoxy)-7-(difluoromethyl)-8-methyl-7H-purin-2-yl)amino)bicyclo[1.1.1]pentane-1-carbonitrile]: 7.93.
